In patent publication US20230232863A1, “FEED COMPOSITION FOR TENEBRIO MOLITOR” (priority 2022, published 2023):

Assays:
Sf9 insect cells = assay: In vitro cell proliferation analysis by PrestoBlue assay; type: cell-based; conditions: 300 nM alloferon; measured at 0, 2, 4 and 6 days
Experimental: The proliferation of Sf9 insect cells was analyzed by the PrestoBlue assay (Invitrogen, CA, USA). 8,000 cells/well were prepared in 96 well plates (Sigma-Aldrich, MI, USA). After cells were seeded, the cells were incubated with PBS with alloferon (300 nM). The control group received PBS without aloferon. At 0, 2, 4, and 6 days after applying 10% PrestoBlue, the color switchover of resazurin to resorufin (Absorbance 570 nm/600 nm) was measured with the microplate reader (BioTeck, Vt., USA).

Tenebrio molitor [1] = assay: Mealworm larvae feeding: development time (larvae-pupae transformation); type: in vivo; conditions: days until 50% of larvae changed into pupae; laboratory scale; alloferon 1 ppm
Experimental: The feeding gelatin was made with combining 200 g of distilled water and 4 g of paper gelatin (Gelita H G, Eberbach, Germany), and solidified in the refrigerator using an ice cubic stick tray with the lid closed. The same process was performed for the experimental group of gelatin containing alloferon peptide (Biomatik, Del., USA) of 1 ppm. The tray had 10 slots to make each gelatin of approximately 20 g gelatin cubic and kept in the refrigerator with the lids closed to minimize loss of moisture. Yellow mealworms (Tenebrio molitor) were provided by a private local insect breeder (Mealworm village, Seoul, Korea). Mealworms larvae were divided into three different dietary groups: (1) About 500 larvae were placed in a plastic container (18.5×12×5.5 cm) with 30 g wheat bran only (control group), (2) About 500 larvae with wheat bran supplemented with 20 g gelatin three times per week (positive control group), (3) About 500 larvae with wheat bran supplemented with 20 g gelatin containing alloferon peptide of 1 ppm three times per week (experimental group). Two replicated containers per each dietary group were set up, after which the containers were placed in a climate chamber at 25° C. with a relative humidity of 60%. Development time of mealworms was considered to be the number of days until 50% of mealworms larvae changed into pupae stage.

Tenebrio molitor [2] = assay: Mealworm larvae feeding: survival rate; type: in vivo; conditions: alloferon peptide of 1 ppm
Experimental: The feeding gelatin was made with combining 200 g of distilled water and 4 g of paper gelatin (Gelita H G, Eberbach, Germany), and solidified in the refrigerator using an ice cubic stick tray with the lid closed. The same process was performed for the experimental group of gelatin containing alloferon peptide (Biomatik, Del., USA) of 1 ppm. The tray had 10 slots to make each gelatin of approximately 20 g gelatin cubic and kept in the refrigerator with the lids closed to minimize loss of moisture.
Yellow mealworms (Tenebrio molitor) were provided by a private local insect breeder (Mealworm village, Seoul, Korea). Mealworms larvae were divided into three different dietary groups: (1) About 500 larvae were placed in a plastic container (18.5×12×5.5 cm) with 30 g wheat bran only (control group), (2) About 500 larvae with wheat bran supplemented with 20 g gelatin three times per week (positive control group), (3) About 500 larvae with wheat bran supplemented with 20 g gelatin containing alloferon peptide of 1 ppm three times per week (experimental group). […]
Mealworms pupae and dead larvae were counted and removed daily from each experimental group, and the numbers were recorded for the evaluation of survival rate. The average weight of the mealworm larvae was recorded every week with 20 randomly selected mealworms.

Phenoloxidase = Phenoloxidase activity analysis in homogenized larvae tissue; type: in vivo, Tenebrio molitor; conditions: after alloferon diet
Experimental: For various analysis of biologic response, harvested mealworms larvae were killed by freezing and then all mealworms stored at −20° C. Penoloxidase activity in homogenized larvae tissue was analyzed with a 96 well microplate reader using catechol as the substrate. After the sample was incubated for 37° C. for 10 min, the 420 nm absorbance was measured with a microplate spectrophotometer (Bio-Rad, CA, USA). The essay was performed with three replicates and each experiment was repeated three times. The penoloxidase activity was expressed as units of enzyme activity per mg protein.

**Q.** With “H-His-Gly-Val-Ser-Gly-His-Gly-Gln-His-Gly-Val-His-Gly-OH (H-HGVSGHGQHGVHG-OH) [alloferon, immunomodulatory peptide (Biomatik) first isolated from hemolymph of Calliphora vicina maggots]” as the substance, how does the “cell proliferation of Sf9 cells” value (Sf9 insect cells) read?
**A.** The value was “significantly boosted cell proliferation of Sf9 cells only after 6 days”.

**Q.** And the “development time shortened compared to wheat bran diet control” value (Tenebrio molitor [1])?
**A.** The value was 40.3%.

**Q.** And the “increase of survival rate” value (Tenebrio molitor [2])?
**A.** Its value is “over 61.8%”.

**Q.** And the “phenoloxidase expression/activity in mealworm tissue” value (Phenoloxidase)?
**A.** The value was “increasing the expression of penoloxidase”.
